Source: USRE39104E1, “Process for the production of dry pharmaceutical forms and the thus obtained pharmaceutical compositions” (Laboratoires Effik, priority 1994, dated 2006)

Assay: Solubility in water
Format: physicochemical
Description: The dosage of the amount of Medroxy progesterone acetate thus dissolved in water was determined by spectrophotometry at 241 nm.

## CC(=O)O[C@]1(C(C)=O)CC[C@H]2[C@@H]3C[C@H](C)C4=CC(=O)CC[C@]4(C)[C@H]3CC[C@@]21C [Medroxy progesterone acetate]
  solubility in water: very low
